Consider 18 compounds from US8937193B2, “Apogossypolone derivatives as anticancer agents” (Sanford-Burnham Medical Research Institute, priority 2009, dated 2015).

Values joined by “and” are separate entries in the source; they are usually repeats but may differ in a detail not shown here. Equal entries are not always repeated. “Also recorded” adds a separate entry of the source. Some results are limits rather than exact numbers.

The conditions of series [1]: administered orally (6a); cited from earlier work.
The next series deals with BP3 cell line. In words: Annexin V-FITC and propidium iodide apoptosis assay, BP3. The series is classed as cell-based, human.
The nature of the next series: EC50 values of FIG. 3(B). The note with it: test not named.
A further series has as its system H1299 cell line. In words: ATP-LITE cell viability assay, H1299. The class given is cell-based. Conditions: Homo sapiens, NCI-H1299, 72 h, 3 days. As for the experimental part: (§1) The activity of the compounds of Formula I against human cancer cell lines (PC3ML, H460, H1299, RS11846) may be assessed by using the ATP-LITE assay (PerkinElmer). All cells are seeded in either F12 or RPMI1640 medium with 5 mM L-glutamine supplemented with 5% fetal bovine serum (Mediatech Inc.), penicillin and streptomycin (Omega). For maintenance, cells are cultured in 5% FBS. Cells plated into 96 well plates at varying initial densities depending on doubling time. H460 and H1299 plated at 2000 cells/well, A549 and PC3 at 3000 cells/well, and […] at 10,000 cells/well. The compounds are diluted to final concentrations with 0.1% DMSO. Prior to dispensing the compounds onto cells, fresh 5% media is placed into the wells. Administration of compounds occurs 24 hours after seeding into the fresh media. Cell viability may be evaluated using ATP-LITE reagent (PerkinElmer) after 72 hours of treatment. Data are normalized to the DMSO control-treated cells using Prism version 5.01 (Graphpad Software).
(§2) The activity of the compounds against human cancer cell lines (PC3, H460, H1299) were assessed by using the ATP-LITE assay (PerkinElmer). All cells were seeded in either […] or RPMI1640 medium with 5 mM L-glutamine supplemented with 5% fetal bovine serum (Mediatech Inc.), penicillin and streptomycin (Omega). For maintenance, cells were cultured in 5% FBS. Cells plated into 96 well plates at varying initial densities depending on doubling time. H460 and H1299 plated at 2000 cells/well and PC3 at 3000 cells/well. Compounds were diluted to final concentrations with 0.1% DMSO. Prior to dispensing compounds onto cells, fresh 5% media was placed into wells. Administration of compounds occurred 24 hours after seeding into the fresh media. Cell viability was evaluated using ATP-LITE reagent (PerkinElmer) after 72 hours of treatment. Data were normalized to the DMSO control-treated cells using Prism version 5.01 (Graphpad Software).

The test system of the next series is PC3 cell line. In words: ATP-LITE cell viability assay, PC3. The series is classed as cell-based. Conditions: Homo sapiens, PC-3, 72 h, 3 days. As for the experimental part: as §2
Another series has as its system H460 cell line. In words: ATP-LITE cell viability assay, H460. The class given is cell-based. The note with it: Homo sapiens, NCI-H460, 72 h, 3 days. As for the experimental part: as §1, §2
A further series deals with primary CLL cells. The series can be described thus: Annexin-V apoptosis assay, primary CLL cells. The series is classed as cell-based, human.
Series [2] in a line: In vitro plasma stability. Conditions: for Plasma Stability (T = 40 mins): Table 4; for degraded after 1 hour incubation in rat plasma: rat plasma (preparations).
From the text: (§3) To test the pharmacological properties of the compounds of Formula I, the in vitro plasma stability, microsomal stability, and cell membrane permeability may be determined.
Series [3] is described as follows: In vitro microsomal stability. Conditions: Table 4.
From the text: as §3
In a further series the test system is PPC-1 xenograft tumors. In words: PPC-1 tumor xenograft study in nude mice.
In a further series the test system is RS4;11 cell line. The series can be described thus: Annexin V-FITC and propidium iodide apoptosis assay, RS4;11. The series is classed as cell-based. Conditions: Homo sapiens, RS4-11, 24 h, 1 day.
The target of the next series is Bcl-XL (Homo sapiens (Human), UniProt Q07817). In words: Fluorescence polarization competitive binding assay (FPA), Bcl-XL. Conditions: displacement of BH3 peptide. On the technique in general: Fluorescence polarisation rises when a labelled molecule tumbles more slowly, as on binding a larger partner.
Bcl-XL, sequence (Q07817 1-211): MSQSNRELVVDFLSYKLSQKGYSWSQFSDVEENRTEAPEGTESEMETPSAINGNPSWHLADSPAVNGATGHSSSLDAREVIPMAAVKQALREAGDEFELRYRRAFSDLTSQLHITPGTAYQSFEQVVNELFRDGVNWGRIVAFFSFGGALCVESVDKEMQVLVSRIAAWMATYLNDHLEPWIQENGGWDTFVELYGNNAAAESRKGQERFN

Method for BP3 cell line: (§4) The apoptotic activity of the compounds against RS4;11, BP3 and primary CLL cells was assessed by staining with Annexin V-FITC and propidium iodide (PI). Cells were cultured in RPMI 1640 medium (Mediatech Inc., Herndon, Va. 20171) containing 10% fetal bovine serum (Mediatech Inc., Herndon, Va. 20171) and Penicillin/Streptomycin (Mediatech Inc., Herndon, Va. 20171). […] The percentage of viable cells was determined by FITC-Annexin V- and propidium iodide (PI)-labeling, using an Apoptosis Detection kit (BioVision Inc.), and analyzing stained cells by flow cytometry (FACSort; Bectin-Dickinson, Inc.; Mountain View, Calif.). Cells that were annexin-V-negative and PI-negative were considered viable.
Method for Bcl-XL: For competitive binding assays, 100 nM GST-BCL-XL ΔTM protein was preincubated with the tested compound at varying concentrations in 47.5 μL PBS (pH=7.4) in 96-well black plates at room temperature for 10 min, then 2.5 μL of 100 nM FITC-labeled Bak BH3 peptide was added to produce a final volume of 50 μL. The wild-type and mutant Bak BH3 peptides were included in each assay plate as positive and negative controls, respectively. After 30 min incubation at room temperature, the polarization values in millipolarization units were measured at excitation/emission wavelengths of 480/535 nm with a multilabel plate reader (PerkinElmer). IC50 was determined by fitting the experimental data to a sigmoidal dose-response nonlinear regression model (SigmaPlot 10.0.1, Systat Software, Inc., San Jose, Calif., USA). Data reported are mean of three independent experiments±standard error (SE). […] Fluorescence polarization was measured after 10 min.
Method for PPC-1 xenograft tumors: Female 6-week-old nude mice were purchased from Charles River Laboratories. 5×10^6 PCC-1 cells suspended in 0.2 ml PBS were injected subcutaneously into a flank region of each nude mouse. Tumor bearing mice were size matched (200 mm^3) into treatment and control group, ear tagged, and monitored individually. Tumor volume was measured two to three times weekly by digital calipers (volume=length×width^2/2). All studies use 6 mice per group. […] Control mice received saline. The injections were given three times in first week, twice in second week and once in third week and a total of six injections were administered during the experiment. When all tumors of the control group exceed 2000 mm^3 in volume, the animal experiment was terminated. Tumor growth inhibition ratios (T/C %) were calculated by dividing the average tumor volume in the treatment group by the average tumor volume in the control group.
Method for RS4;11 cell line: as §4
Method for primary CLL cells: as §4

Take `Cc1cc2c(C(C)C)c(O)c(O)c(C=O)c2c(O)c1-c1c(C)cc2c(C(C)C)c(O)c(O)c(C=O)c2c1O` [(−) 1]: in series [1], the “maximum tolerated dose (MTD)” value is given as 50 mg/kg.

Regarding `CN(C)CC[C@H](CSc1ccccc1)Nc1ccc(S(=O)(=O)NC(=O)c2ccc(N3CCN(Cc4ccccc4-c4ccc(Cl)cc4)CC3)cc2)cc1[N+](=O)[O-]` [ABT-737, reference compound], the “cell (cytotoxic) activity against BP3 cell lines” value with BP3 cell line (result in words) is given as “no cell activity; also recorded: no cytotoxic activity”.

Take `Cc1cc2c(C(=O)Cc3ccccc3)c(O)c(O)cc2c(O)c1-c1c(C)cc2c(C(=O)Cc3ccccc3)c(O)c(O)cc2c1O` [BI79D10]: in “EC50 values of FIG. 3(B)”, the EC50 was 360 nM.

For the compound `CC1=C(C2=C(C)C(=O)c3c(cc(O)c(O)c3CC3CCCC3)C2=O)C(=O)c2cc(O)c(O)c(CC3CCCC3)c2C1=O` [Compound 6c, 5,5′-bis(cyclopentylmethyl)-6,6′,7,7′-tetrahydroxy-3,3′-dimethyl-2,2′-binaphthyl-1,1′,4,4′-tetraone], the EC50 in the series on H1299 cell line was found to be 2320 ± 510 nM; in the series on PC3 cell line it was 5500 ± 740 nM; in the series on H460 cell line it was 700 ± 340 nM. The “LD50 primary CLL samples” value with primary CLL cells (comparison of 6c with 6a) came out at 6.5 µM.

For the compound `CC1=C(C2=C(C)C(=O)c3c(cc(O)c(O)c3CCC3CCCCC3)C2=O)C(=O)c2cc(O)c(O)c(CCC3CCCCC3)c2C1=O` [Compound 6d, 5,5′-bis(2-cyclohexylethyl)-6,6′,7,7′-tetrahydroxy-3,3′-dimethyl-2,2′-binaphthyl-1,1′,4,4′-tetraone], the EC50 with H1299 cell line was found to be 1320 ± 300 nM; in the series on PC3 cell line it was 2400 ± 240 nM; in the series on H460 cell line, 2200 ± 760 nM. The “Plasma Stability (T = 40 mins)” value in series [2] amounted to 74%. For the same compound, the “Microsomal Stability (T = 40 mins)” value in [3] stood at 98%.

In the case of `CC1=C(C2=C(C)C(=O)c3c(cc(O)c(O)c3CCc3ccc(C)cc3)C2=O)C(=O)c2cc(O)c(O)c(CCc3ccc(C)cc3)c2C1=O` [Compound 6f, 6,6′,7,7′-tetrahydroxy-3,3′-dimethyl-5,5′-bis(4-methylphenethyl)-2,2′-binaphthyl-1,1′,4,4′-tetraone], in series [2], the “degraded after 1 hour incubation in rat plasma” value came out at 14% and the “Plasma Stability (T = 40 mins)” value came to 86%. In the series on PPC-1 xenograft tumors (50 mg/kg i.p.), the “average body weight losses during the treatment” value was 6.8% and the signs of toxicity result was “no observable signs of toxicity”. The “weight loss in first week” value in the series on PPC-1 xenograft tumors (50 mg/kg i.p. three times in first week) was around 5%. Further, in the series with primary CLL cells (six CLL samples from six different patients), the “LD50 primary CLL samples” value fell in the range of 1.0 to 16.9 µM. For the same compound, the “LD50 primary CLL samples” value in the series on primary CLL cells (two primary CLL samples, one day Annexin-V apoptosis assay) is 10 µM and 15 µM.

For `CC1=C(C2=C(C)C(=O)c3c(cc(O)c(O)c3CCCc3ccccc3)C2=O)C(=O)c2cc(O)c(O)c(CCCc3ccccc3)c2C1=O` [Compound 6g, 6,6′,7,7′-tetrahydroxy-3,3′-dimethyl-5,5′-bis(3-phenylpropyl)-2,2′-binaphthyl-1,1′,4,4′-tetraone], the EC50 in the series on H1299 cell line is 1530 ± 410 nM; in the series with PC3 cell line it was 1300 ± 180 nM; in the series on H460 cell line, 920 ± 90 nM; in the series on RS4;11 cell line it was 3830 ± 700 nM. Besides, the “Plasma Stability (T = 40 mins)” value in series [2] is 87%. In addition, the “Microsomal Stability (T = 40 mins)” value in series [3] came out at 88%.

As to `CC1=C(C2=C(C)C(=O)c3c(cc(O)c(O)c3CCC(C)(C)c3ccccc3)C2=O)C(=O)c2cc(O)c(O)c(CCC(C)(C)c3ccccc3)c2C1=O` [Compound 6h, 6,6′,7,7′-tetrahydroxy-3,3′-dimethyl-5,5′-bis(3-methyl-3-phenylbutyl)-2,2′-binaphthyl-1,1′,4,4′-tetraone], the concentration giving a half-maximal response (EC50) with H1299 cell line turned out to be 2160 ± 270 nM; in the series on PC3 cell line, 2000 ± 170 nM; in the series on H460 cell line it was 1620 ± 160 nM.

`CC1=C(C2=C(C)C(=O)c3c(cc(O)c(O)c3Cc3ccccc3)C2=O)C(=O)c2cc(O)c(O)c(Cc3ccccc3)c2C1=O` [Compound 6i, 5,5′-dibenzyl-6,6′,7,7′-tetrahydroxy-3,3′-dimethyl-2,2′-binaphthyl-1,1′,4,4′-tetraone] yielded an IC50 on Bcl-XL of 160 to 630 nM. Besides, in series [2], the “degraded after 1 hour incubation in rat plasma” value is 5% and the “Plasma Stability (T = 40 mins)” value amounted to 95%.

On to `CC1=C(C2=C(C)C(=O)c3c(cc(O)c(O)c3CCc3ccc(OC(F)(F)F)cc3)C2=O)C(=O)c2cc(O)c(O)c(CCc3ccc(OC(F)(F)F)cc3)c2C1=O` [Compound 6j, 6,6′,7,7′-tetrahydroxy-3,3′-dimethyl-5,5′-bis(4-(trifluoromethoxy)phenethyl)-2,2′-binaphthyl-1,1′,4,4′-tetraone], for which the values for the EC50 in the series with H1299 cell line, in the series with PC3 cell line and with H460 cell line were 2380 ± 210 nM, 8990 ± 2490 nM and 1440 ± 200 nM, respectively.

With `CC1=C(C2=C(C)C(=O)c3c(cc(O)c(O)c3CCCc3ccc(F)cc3)C2=O)C(=O)c2cc(O)c(O)c(CCCc3ccc(F)cc3)c2C1=O` [Compound 6k, 5,5′-bis(3-(4-fluorophenyl)propyl)-6,6′,7,7′-tetrahydroxy-3,3′-dimethyl-2,2′-binaphthyl-1,1′,4,4′-tetraone], the EC50 came to 1910 ± 170 nM with H1299 cell line, 2620 ± 310 nM with PC3 cell line and 1480 ± 20 nM with H460 cell line.

Regarding `CC1=C(C2=C(C)C(=O)c3c(cc(O)c(O)c3Cc3ccc(Cl)cc3)C2=O)C(=O)c2cc(O)c(O)c(Cc3ccc(Cl)cc3)c2C1=O` [Compound 6l, 5,5′-bis(4-chlorobenzyl)-6,6′,7,7′-tetrahydroxy-3,3′-dimethyl-2,2′-binaphthyl-1,1′,4,4′-tetraone], the IC50 at Bcl-XL was in the range of 160 to 630 nM.

Consider `CC1=C(C2=C(C)C(=O)c3c(cc(O)c(O)c3Cc3ccc(-c4ccccc4)cc3)C2=O)C(=O)c2cc(O)c(O)c(Cc3ccc(-c4ccccc4)cc3)c2C1=O` [Compound 6m, 5,5′-bis(biphenyl-4-ylmethyl)-6,6′,7,7′-tetrahydroxy-3,3′-dimethyl-2,2′-binaphthyl-1,1′,4,4′-tetraone], for which the concentration giving a half-maximal response (EC50) with H1299 cell line amounted to 10300 ± 3840 nM; with PC3 cell line it was 2970 ± 980 nM; with H460 cell line it was 980 ± 150 nM.

With `CC1=C(C2=C(C)C(=O)c3c(cc(O)c(O)c3C(=O)Cc3ccccc3)C2=O)C(=O)c2cc(O)c(O)c(C(=O)Cc3ccccc3)c2C1=O` [Compound 7, 6,6′,7,7′-Tetrahydroxy-3,3′-dimethyl-5,5′-bis(2-phenylacetyl)-2,2′-binaphthyl-1,1′,4,4′-tetraone], the EC50 in the series with BP3 cell line (Homo sapiens, BP3, 24 h, Annexin V-FITC and propidium iodide assay, 1 day) was 9580 ± 4160 nM; with H1299 cell line, above 30000 nM; in the series on PC3 cell line, 5440 ± 240 nM; with H460 cell line it was 7380 ± 1070 nM. The IC50 at Bcl-XL is 160 to 630 nM.

Consider `CC1=C(C2=C(C)C(=O)c3c(cc(O)c(O)c3C(=O)NCC(C)c3ccccc3)C2=O)C(=O)c2cc(O)c(O)c(C(=O)NCC(C)c3ccccc3)c2C1=O` (stereo not shown) [Compound 8a, 6,6′,7,7′-Tetrahydroxy-3,3′-dimethyl-1,1′,4,4′-tetraoxo-N^5,N^5′-bis(2-phenylpropyl)-1,1′,4,4′-tetrahydro-2,2′-binaphthyl-5,5′-dicarboxamide], for which the IC50 at Bcl-XL fell in the range of 160 to 630 nM. In addition, the EC50 with H1299 cell line was above 30000 nM. The “Plasma Stability (T = 40 mins)” value in series [2] was found to be 91%. For the same compound, the “Microsomal Stability (T = 40 mins)” value in series [3] is 71%.

Take `CC1=C(C2=C(C)C(=O)c3c(cc(O)c(O)c3C(=O)NCc3cccc(C)c3)C2=O)C(=O)c2cc(O)c(O)c(C(=O)NCc3cccc(C)c3)c2C1=O` [Compound 8b, 6,6′,7,7′-tetrahydroxy-3,3′-dimethyl-N^5,N^5′-bis(3-methylbenzyl)-1,1′,4,4′-tetraoxo-1,1′,4,4′-tetrahydro-2,2′-binaphthyl-5,5′-dicarboxamide]: the results for the EC50 with H1299 cell line, in the series with PC3 cell line and in the series with H460 cell line were above 30000 nM, 5440 ± 340 nM and 6160 ± 1480 nM, respectively.

As for `CCc1ccc(CCNC(=O)c2c(O)c(O)cc3c2C(=O)C(C)=C(C2=C(C)C(=O)c4c(cc(O)c(O)c4C(=O)NCCc4ccc(CC)cc4)C2=O)C3=O)cc1` [Compound 8c, N^5,N^5′-Bis(4-ethylphenethyl)-6,6′,7,7′-tetrahydroxy-3,3′-dimethyl-1,1′,4,4′-tetraoxo-1,1′,4,4′-tetrahydro-2,2′-binaphthyl-5,5′-dicarboxamide], the IC50 at Bcl-XL was in the range of 160 to 630 nM.

Consider `Cc1cc2c(C(C)C)c(O)c(O)c(C=O)c2c(O)c1-c1c(C)cc2c(C(C)C)c(O)c(O)c(C=O)c2c1O` [Gossypol, 1,1′,6,6′,7,7′-Hexahydroxy-5,5′-diisopropyl-3,3′-dimethyl-2,2′-binaphthyl-8,8′-dicarboxaldehyde], for which the “mortality in first week” value in the series with PPC-1 xenograft tumors (25 mg/kg, i.p.) is given as “died”.

Usually EC50 stands for the concentration at which the effect is half-maximal. High values mean a need for much substance, low ones an effect from little substance. Broadly, the IC50 is the concentration needed to halve the response being measured. Low values mean greater potency, high ones weaker potency.
